According to paper PMC11005040, “Photoactivatable Ruthenium Complexes Containing Minimal Straining Benzothiazolyl-1,2,3-triazole Chelators for Cancer Treatment” (Inorganic Chemistry, 2024):
Like-named read-outs stand apart in the source and are kept apart here.

Key:
[1] = system: A2780 cells; assay: Dark cytotoxic screening, MTT test, 48 h; assay type: cell-based, human; settings: 48 h in the dark
Procedure: (§1) For dark cytotoxic screening, A2780, CHO, HeLa, and A375 cells were cultured in 96-well plates at a density of 5 × 10^3 cells/well in complete medium and incubated for 24 h at 310 K and 5% CO2 in a humidified incubator. Serial dilutions of tested compounds in cell culture media were then added at final concentrations in the range of 0 to 100 μM in a final volume of 100 μL/well (%v/v DMSO below 0.4%) for 48 h prior to MTT test. For photoactivation studies, HeLa and A375 cells were used. Treatments were added at final concentrations in the range of 0 to 500 μM. After 1 h incubation with the compounds, light irradiation treatments were applied using a LED photoreactor (Luzchem; Canada) fitted with LED lamps centered at 465 nm (final intensity 4 mW/cm^2) for 1 h. Dark control analogues were directly kept in the dark for 2 h. After incubation periods, cells were washed with saline PBS buffer and loaded with 50 μL of MTT solution (1 mg/mL) for additional 4 h, then removed and 50 μL DMSO was added to solubilize the purple formazan crystals formed in active cells. The absorbance was measured at 570 nm using a microplate reader (FLUOstar Omega) and the IC50 values were calculated based on the inhibitory rate curves using the next the equation [drawing 2] where I represents the percentage inhibition of viability observed, Imax is the maximal inhibitory effect, IC50 is the concentration that inhibits 50% of maximal growth, C is the concentration of the treatment, and n is the slope of the semilogarithmic dose–response sigmoidal curves. The nonlinear fitting was performed using SigmaPlot 14.0 software. Two independent experiments were performed with triplicate points per concentration level (n = 3).

[2] = system: HeLa cells; assay: Dark cytotoxic screening, MTT test, 48 h; assay type: cell-based, human; settings: 48 h in the dark
Procedure: as §1

[3] = system: CHO cells; assay: Dark cytotoxic screening, MTT test, 48 h; assay type: cell-based; settings: 48 h in the dark
Procedure: as §1

[4] = system: HeLa cells; parameters: method as in doi:10.1016/j.dyepig.2022.110905; settings: λexc 405 nm; cited from earlier work
[5] = system: A375 cells; assay: Dark cytotoxic screening, MTT test, 48 h; assay type: cell-based, human; settings: 48 h in the dark
Procedure: as §1

[6] = system: A375 cells; assay: Photoactivation studies (phototoxicity, MTT), dark vs blue light; assay type: cell-based, human
Procedure: as §1

[7] = system: HeLa cells; assay: as above; assay type: cell-based, human
Procedure: as §1

[8] = system: HeLa cells; assay: Cell uptake by confocal microscopy; assay type: cell-based, human; settings: 15 μM, 2 h incubation; for Cellular uptake: λexc 450 nm
Procedure: HeLa cells were seeded onto Ibidi μ-slides at 10^4 cells/cm^2 in a complete medium and incubated for 24 h at 310 K and 5% CO2 in a humidified incubator. Compounds were added at indicated concentrations for 2 h. […]

[9] = system: HeLa cells; assay: Confocal microscopy imaging after blue light irradiation; assay type: cell-based, human; settings: 15 μM
Procedure: HeLa cells were seeded onto Ibidi μ-slides at 10^4 cells/cm^2 in a complete medium and incubated for 24 h at 310 K and 5% CO2 in a humidified incubator. […] Cells were then washed with PBS twice and imaged under confocal microscopy (STELLARIS Leica Microsystems) using 405 nm excitation laser.

[10] = hypoxia (2% O2), 1 h incubation then blue light 465 nm, 4 mW/cm^2, 1 h, read-out: IC50 A375 blue light
[11] = hypoxia (2% O2), dark, read-out: IC50 A375 dark
[12] = normoxia (21% O2), 1 h incubation then blue light 465 nm, 4 mW/cm^2, 1 h, read-out: IC50 A375 blue light
[13] = normoxia (21% O2), dark 2 h, read-out: IC50 A375 dark
[14] = hypoxia (2% O2), 1 h incubation then blue light 465 nm, 4 mW/cm^2, 1 h, read-out: IC50 HeLa blue light
[15] = hypoxia (2% O2), dark, read-out: IC50 HeLa dark
[16] = normoxia (21% O2), 1 h incubation then blue light 465 nm, 4 mW/cm^2, 1 h, read-out: IC50 HeLa blue light
[17] = normoxia (21% O2), dark 2 h, read-out: IC50 HeLa dark

**Q.** Which IC50 [1] does the source give for `[NH2][Pt]([NH2])([Cl])[Cl]` [CDDP, cisplatin, reference compound] here?
**A.** Its IC50 is 1.9 ± 0.1 µM.

**Q.** What about the IC50 [2] of the same molecule?
**A.** The IC50 was 21 ± 2 µM.

**Q.** And the IC50 [3]?
**A.** The IC50 was 7.8 ± 0.4 µM.

**Q.** With `CN(C)c1ccc(-n2cc(-c3nc4ccccc4s3)nn2)cc1` [L5] as the molecule, how does the Intracellular distribution [4] read?
**A.** The Intracellular distribution was “evenly distributed around cell cytoplasm but not within nuclei”.

**Q.** For `Cc1ccc(-n2cc(-c3nc4ccccc4s3)nn2)cc1.O=S(=O)([O-])C(F)(F)F.O=S(=O)([O-])C(F)(F)F.[Ru+2].c1cnc2c(c1)ccc1cccnc12.c1cnc2c(c1)ccc1cccnc12` [Ru1, [Ru(phen)2(L1)][OTf]2], which IC50 [1] is on record?
**A.** Its IC50 is greater than 100 µM.

**Q.** And the IC50 [5]?
**A.** The IC50 was greater than 100 µM.

**Q.** And the IC50 [2]?
**A.** The IC50 was greater than 100 µM.

**Q.** And the IC50 [3]?
**A.** The IC50 was greater than 100 µM.

**Q.** What about the “P.I. A375 (IC50 dark/IC50 465 nm)” value ([6]; hypoxia (2% O2)) of the same molecule?
**A.** Its value is greater than 7.5.

**Q.** What about the IC50 [6, 10] of the same molecule?
**A.** Its IC50 is 66.9 ± 6.1 µM.

**Q.** And the IC50 [6, 11]?
**A.** Its IC50 is greater than 500 µM.

**Q.** What about the “P.I. A375 (IC50 dark/IC50 465 nm)” value ([6]; normoxia) of the same molecule?
**A.** The value was greater than 24.4.

**Q.** What about the IC50 [6, 12] of the same molecule?
**A.** Its IC50 is 20.6 ± 1.5 µM.

**Q.** What about the IC50 [6, 13] of the same molecule?
**A.** The IC50 was greater than 500 µM.

**Q.** What about the “P.I. HeLa (IC50 dark/IC50 465 nm)” value ([7]; hypoxia (2% O2)) of the same molecule?
**A.** Its value is greater than 7.1.

**Q.** What about the IC50 [7, 14] of the same molecule?
**A.** The IC50 was 70.2 ± 5 µM.

**Q.** And the IC50 [7, 15]?
**A.** Its IC50 is greater than 500 µM.

**Q.** What about the “P.I. HeLa (IC50 dark/IC50 465 nm)” value ([7]; normoxia) of the same molecule?
**A.** The value was greater than 10.4.

**Q.** What about the IC50 [7, 16] of the same molecule?
**A.** The IC50 was 48 ± 3.4 µM.

**Q.** What about the IC50 [7, 17] of the same molecule?
**A.** The IC50 was greater than 500 µM.

**Q.** Which results are given for `FC(F)(F)c1ccc(-n2cc(-c3nc4ccccc4s3)nn2)cc1.O=S(=O)([O-])C(F)(F)F.O=S(=O)([O-])C(F)(F)F.[Ru+2].c1cnc2c(c1)ccc1cccnc12.c1cnc2c(c1)ccc1cccnc12` [Ru3, [Ru(phen)2(L3)][OTf]2]?
**A.** IC50 [1]: > 100 µM; IC50 [5]: > 100 µM; IC50 [2]: > 100 µM; IC50 [3]: > 100 µM; IC50 [6, 10]: > 100 µM; IC50 [6, 11]: > 500 µM; P.I. A375 (IC50 dark/IC50 465 nm) ([6]; normoxia): >6.8; IC50 [6, 12]: 73.5 ± 4.3 µM; IC50 [6, 13]: > 500 µM; P.I. HeLa (IC50 dark/IC50 465 nm) ([7]; hypoxia (2% O2)): >5.9; IC50 [7, 14]: 85.2 ± 4.4 µM; IC50 [7, 15]: > 500 µM; P.I. HeLa (IC50 dark/IC50 465 nm) ([7]; normoxia): >6.8; IC50 [7, 16]: 73.5 ± 4.2 µM; IC50 [7, 17]: > 500 µM

**Q.** What does the source list for `O=S(=O)([O-])C(F)(F)F.O=S(=O)([O-])C(F)(F)F.O=[N+]([O-])c1ccc(-n2cc(-c3nc4ccccc4s3)nn2)cc1.[Ru+2].c1cnc2c(c1)ccc1cccnc12.c1cnc2c(c1)ccc1cccnc12` [Ru4, [Ru(phen)2(L4)][OTf]2]?
**A.** IC50 [1]: > 100 µM; IC50 [5]: > 100 µM; IC50 [2]: > 100 µM; IC50 [3]: > 100 µM; P.I. A375 (IC50 dark/IC50 465 nm) ([6]; hypoxia (2% O2)): >9.6; IC50 [6, 10]: 51.9 ± 2.4 µM; IC50 [6, 11]: > 500 µM; P.I. A375 (IC50 dark/IC50 465 nm) ([6]; normoxia): >26.6; IC50 [6, 12]: 18.8 ± 3.7 µM; IC50 [6, 13]: > 500 µM; P.I. HeLa (IC50 dark/IC50 465 nm) ([7]; hypoxia (2% O2)): >12.0; IC50 [7, 14]: 41.7 ± 2.7 µM; IC50 [7, 15]: > 500 µM; P.I. HeLa (IC50 dark/IC50 465 nm) ([7]; normoxia): >14.8; IC50 [7, 16]: 33.8 ± 5.5 µM; IC50 [7, 17]: > 500 µM; Intracellular distribution [8]: across the cytoplasm in punctate deposits; Cellular uptake [8]: excellent and rapid cellular uptake

**Q.** Which results are given for `CN(C)c1ccc(-n2cc(-c3nc4ccccc4s3)nn2)cc1.O=S(=O)([O-])C(F)(F)F.O=S(=O)([O-])C(F)(F)F.[Ru+2].c1cnc2c(c1)ccc1cccnc12.c1cnc2c(c1)ccc1cccnc12` [Ru5, [Ru(phen)2(L5)][OTf]2]?
**A.** IC50 [1]: > 100 µM; IC50 [5]: > 100 µM; IC50 [2]: > 100 µM; IC50 [3]: > 100 µM; IC50 [6, 10]: > 100 µM; IC50 [6, 11]: > 500 µM; P.I. A375 (IC50 dark/IC50 465 nm) ([6]; normoxia): >18.5; IC50 [6, 12]: 27.1 ± 6.2 µM; IC50 [6, 13]: > 500 µM; P.I. HeLa (IC50 dark/IC50 465 nm) ([7]; hypoxia (2% O2)): >8.7; IC50 [7, 14]: 57.2 ± 6.4 µM; IC50 [7, 15]: > 500 µM; P.I. HeLa (IC50 dark/IC50 465 nm) ([7]; normoxia): >12.0; IC50 [7, 16]: 41.8 ± 3.9 µM; IC50 [7, 17]: > 500 µM; Intracellular distribution [8]: across the cytoplasm in punctate deposits; Cellular uptake [8]: excellent and rapid cellular uptake; Cell cytotoxicity by imaging, 1 min irradiation ([9]; 1 h, then blue light 1 min): no cell cytotoxicity was observed; Cell cytotoxicity by imaging, 1 h irradiation ([9]; then blue light 1 h): discernible cell damage is evident
